Measured values published in US20180015170A1, “CYCLODEXTRIN-BASED POLYMERS FOR THERAPEUTIC DELIVERY” (CERULEAN PHARMA INC., priority 2012, published 2018).
Several values for one entry are separate records, joined by “and”; a condition that tells them apart may be missing. Identical values can stand only once.

What was measured:
B16.F10 cells = experiment: Efficacy of CDP-docetaxel nanoparticles in a murine melanoma model; assay type: in vivo, male C57BL/6 mice
Procedure: (§1) Animals were monitored for any morbidity and adverse effect three times a week.
Tumor volume was calculated with a (width×width×length)/2 mm^3 formula.

[1] = Tolerability (body weight) in the B16.F10 murine melanoma model
Procedure: as §1
Health monitoring was conducted three times a week to evaluate lethargy, tremors, hypothermia, ataxia, hind limb paralysis etc. The criteria at which a mouse was removed from the study were >20% body weight loss or severe morbidity or hind limb paralysis.

[2] = 15 mg/kg IV, weekly schedule for 3 injections
[3] = 30 mg/kg IV, weekly schedule for 3 injections (sections 1.4, 2.3, 4.2, 5.2)

| Substance | day on which the mean tumor volume endpoint (≧3000 mm^3) was reached (B16.F10 cells; [2]) [days] | day on which the mean tumor volume endpoint (≧3000 mm^3) was reached (B16.F10 cells; mouse, in vivo) | Tumor growth delay (TGD) (B16.F10 cells; [2]) [days] | increase in TGD (B16.F10 cells; [2]) [%] | Tumor growth delay (TGD) (B16.F10 cells; [3]) [days] | day on which the mean tumor volume endpoint (≧3000 mm^3) was reached (B16.F10 cells; [3]) [days] | increase in TGD (B16.F10 cells; [3]) [%] | Maximum body weight loss (%) [1, 2] | Maximum body weight loss (%) [1, 3] |
| --- | --- | --- | --- | --- | --- | --- | --- | --- | --- |
| CDP-2′-aminoethoxyethoxy-Docetaxel [CDP-aminoethoxyethoxy-DTX formulation] | 33 |  |  |  |  |  |  |  |  |
| CDP-2′-alanine glycolate-docetaxel [CDP-Ala Gly-DTX formulation] |  | 43 days and 33 days and 29 days |  |  |  |  |  |  |  |
| CDP-dithiolethyloxy-carbonate-docetaxel [CDP-ethane-S-S-ethane-DTX formulation] | 21 |  | 2 | 11 | 5 | 24 | 26 | did not cause any body weight loss | did not cause any significant body weight loss |
